According to patent US4965280A, “Antifungal carbinols” (E. I. Du Pont de Nemours and Company, priority 1989, dated 1990):
≈ marks a conversion by molar mass, not a printed value. Where two headings read alike, the source gives them in different places.

Key:
[1] = test system: Venturia inaequalis; test: Example A apple scab; type: in vivo; details: read-out: disease control rating, Ex. A
In short: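 Test compounds were dissolved in acetone (6% of final volume) and suspended at 100 or 20 ppm in purified water containing 250 ppm of the surfactant TREM 014 (polyhydric alcohol esters). Apple seedlings were sprayed with this suspension to the point of run-off.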

[2] = test system: Cercosporidium personatum; test: Example B Peanut Late Leafspot; type: in vivo; details: Nothopassalora personata, read-out: disease control rating, Ex. B
In short: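 Compounds were dissolved in acetone (6% of final volume) and suspended at 100 or 20 ppm in purified water containing 250 ppm TREM 014 surfactant (polyhydric alcohol esters). The suspension was sprayed to run-off on peanut seedlings.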

[3] = test system: Botrytis cinerea; test: Example C bean grey mold; type: in vivo; details: Botrytis cinerea, 24 h, read-out: disease control rating, Ex. C
In short: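 Test compounds were taken up in acetone (6% of final volume) and suspended at 100 or 20 ppm in purified water containing 250 ppm TREM 014 surfactant (polyhydric alcohol esters). Broad bean seedlings were sprayed with this suspension until run-off.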

[4] = test system: Pyricularia oryzae; test: whole plant or invertebrate; type: in vivo; details: Pyricularia oryzae, 120 h; for pest or weed control at 100 ppm: read-out: disease control rating, Ex. E, 100 PPM
[5] = test system: Rhizoctonia solani; test: Example K cotton blight; type: in vivo; details: 336 h, 5 kg/ha, read-out: disease control rating, Ex. K
Description: […] Seeds and soil were then inoculated with a mixture of sand, cereal and mycelium of the fungus Rhizoctonia solani, causal agent of cotton blight, and incubated in a growth chamber at 30° C. for 14 days. Disease ratings were then made.

[6] = test system: Fusarium oxysporum f. sp. cucumerinum; test: Example L cucumber wilt; type: in vivo; details: 336 h, 5 kg/ha, read-out: disease control rating, Ex. L
Description: […] Seeds and soil were then inoculated with a mixture of sand, cereal and mycelium of the fungus Fusarium oxysporum f. sp. cucumerinum, causal agent of cucumber wilt, and incubated in a growth chamber at 30° C. for 14 days. Disease ratings were then made.

[7] = test system: Sclerotium rolfsii; test: Example M southern blight; type: in vivo; details: Agroathelia rolfsii, 336 h; 5 kg/ha; read-out: disease control rating, Ex. M
Description: […] Seeds and soil were then inoculated with a mixture of sand, cereal and mycelium of the fungus Sclerotium rolfsii, causal agent of sourthern blight, and incubated in a growth chamber at 30° C. for 14 days. Disease ratings were then made.

[8] = test system: WATERCHESTNUT; test: Test C rice paddy; type: in vivo, Eleocharis spp.; details: Eleocharis, 504 h, 21 days, read-out: plant response; for pest or weed control at 64 g/ha: 0064 G/HA; for pest or weed control at 125 g/ha: 0125 G/HA; for pest or weed control at 250 g/ha: 0250 G/HA; for pest or weed control at 500 g/ha: 0500 G/HA
Excerpt: (§1) Sixteen cm diameter Airlite plastic pots were partially filled with Tama slit loam soil and the soil saturated with water. Japonica and Indica rice seedlings a the 2.0 to 2.5 leaf stage were transplanted into 1/3 of the pots. Into another third of the pots were transplanted seedling or sprouted tubers of water plantain (Alisma trivale), Scripus (Scirpus paludosus), Cyperus (Cyperus esculentus), and arrowhead (Sagittaria spp.). The remaining pots were planted with barnyardgrass (Echinochloa crusgalli) seeds and sprouted tubes of water chestnut (Eleocharis spp.). These weeds all represent major rice weeds or genera of weeds important in rice. Three to four days after planting, the water level was raised to 3 cm (about 1200 ml/pot) and maintained a this level throughout the test. Chemical treatments were applied directly to the paddy water, within 24 hours of raising the water, after being formulated in a nonphytotoxic solvent. The pots were maintained in the greenhouse.

[9] = test system: YELLOW NUTSEDGE; test: Test C rice paddy; type: in vivo, Cyperus esculentus; details: 21 days
Excerpt: as §1

[10] = test system: RICE INDICA EFF; test: Test C rice paddy; type: in vivo; details: Oryza sativa, 504 h, 21 days, read-out: plant response; for pest or weed control at 64 g/ha: 0064 G/HA; for pest or weed control at 125 g/ha: 0125 G/HA; for pest or weed control at 250 g/ha: 0250 G/HA; for pest or weed control at 500 g/ha: 0500 G/HA
Excerpt: as §1

[11] = test system: Candida albicans ATCC 11651; test: In vivo systemic Candida infection in mice, primary assay; design: species or system Candida albicans; CF-1 female mice; details: Candida albicans, 150 mg/kg per day, read-out: % Survival
In short: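 CF-1 female mice (20 g, 10 per group) were infected IV with 0.2 ml of 1×10^7/ml C. albicans ATCC 11651, then given test compound subcutaneously at 50 or 150 mg/kg/day at 1 and 6 h post-infection and once daily for three more days. Survival was followed for 21 days against infected untreated mice; ≥70% protection at 14 days was scored active.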

[12] = test system: Candida albicans ATCC 11651; test: In vitro antifungal MIC, microtiter broth dilution; details: Candida albicans, ATCC11651, 24 h, read-out: MIC values, C. albicans, 30°, 24 hours
[13] = test system: Aspergillus fumigatus ATCC 28214; test: In vitro antifungal MIC, microtiter broth dilution; details: Aspergillus fumigatus, ATCC28214, 24 h, read-out: MIC values, A. fumigatus, 30°, 24 hours

Compound | pest or weed control at 100 ppm [3] | pest or weed control at 100 ppm [4] | pest or weed control at 5000 g/ha [5] | pest or weed control at 5000 g/ha [6] | pest or weed control at 5000 g/ha [7] | pest or weed control at 64 g/ha [8] | pest or weed control at 125 g/ha [8] | pest or weed control at 250 g/ha [8] | pest or weed control at 500 g/ha [8] | pest or weed control at 1000 g/ha [8] | plant response ([9]; 0064 G/HA) | plant response ([9]; 0125 G/HA) | plant response ([9]; 0250 G/HA) | plant response ([9]; 0500 G/HA) | plant response ([9]; 1000 G/HA) | pest or weed control at 64 g/ha [10] | pest or weed control at 125 g/ha [10] | pest or weed control at 250 g/ha [10] | pest or weed control at 500 g/ha [10] | pest or weed control at 1000 g/ha [10] | also measured
C=C(c1ccc(F)cc1)C(O)(Cn1ncnc1I)c1ccc(F)cc1F (stereo not shown) [Example 1381] | 97% | 51% | 50% | 0% | 0% | 0% | 0% | 0% | 0% | 0% | 0 | 0 | 0 | 40 | 50 | 0% | 0% | 20% | 40% | 60% | pest or weed control at 100 ppm [1]: 100%; pest or weed control at 100 ppm [2]: 100%
C=C(c1ccccc1Cl)C(O)(Cn1cncn1)c1ccc(Cl)cc1Cl (stereo not shown) [Example 33, 2-(2,4-Dichlorophenyl)-3-(2-chlorophenyl)-1-(1H-1,2,4-triazol-1-yl)-3-buten-2-ol] | 56% | 0% | 0% | 0% | 0% | 0% | 0% | 0% | 0% | 0% | 0 | 0 | 0 | 0 | 40 | 0% | 0% | 0% | 30% | 70% | responders at 150 mg/kg ([11]; ATCC11651, 168 h, day 7): 100%; responders at 150 mg/kg ([11]; ATCC11651, 336 h, day 14): 100%; responders at 150 mg/kg ([11]; ATCC11651, 504 h, day 21): 100%; pest or weed control at 20 ppm ([1]; 20 PPM): 47%; pest or weed control at 20 ppm ([2]; 20 PPM): 99%; pest or weed control at 20 ppm ([3]; 20 PPM): 37%; pest or weed control at 20 ppm ([4]; read-out: disease control rating, Ex. E, 20 PPM): 0%; MIC [12]: 0.03 µg/mL (≈ 0.076 µM); MIC [13]: 0.03 µg/mL (≈ 0.076 µM)
C=C(c1ccccc1Cl)C(O)(Cn1cncn1)c1ccc(F)cc1F (stereo not shown) [Example 35] | 96% | 0% | 0% | 0% | 0% | 60% | 40% | 60% | 0% | 0% | 0 | 0 | 60 | 95 | 100 | 0% | 0% | 0% | 0% | 20% | responders at 150 mg/kg ([11]; ATCC11651, 168 h, day 7): 100%; responders at 150 mg/kg ([11]; ATCC11651, 336 h, day 14): 100%; responders at 150 mg/kg ([11]; ATCC11651, 504 h, day 21): 90%; pest or weed control at 100 ppm [1]: 100%; pest or weed control at 100 ppm [2]: 100%; MIC [12]: 0.03 µg/mL (≈ 0.0829 µM); MIC [13]: 0.1 µg/mL (≈ 0.276 µM)
C=C(c1ccc(F)cc1)C(O)(Cn1ncnc1S)c1ccc(F)cc1F (stereo not shown) [Example 1304] | 97% | 78% | 0% | 0% | 0% | 0% | 0% | 0% | 0% | 50% | 0 | 0 | 0 | 0 | 0 | 0% | 0% | 0% | 0% | 40% | pest or weed control at 100 ppm [1]: 100%; pest or weed control at 100 ppm [2]: 100%
